Reference: publication PMC5856786, “A DHODH inhibitor increases p53 synthesis and enhances tumor cell killing by p53 degradation blockage” (Nature Communications, 2018)

Key:
lipid kinases = assay: ADP-Glo kinase assays, panel of 16 lipid kinases (Supplementary Table 3); assay type: biochemical
Excerpt: Supplementary Table 3. In vitro inhibition (% remaining activity) of lipid […]
kinases using ADP-Glo™ kinase assays (Promega) according to manufacturer ’s instructions (International Centre for Kinase Profiling, Dundee, UK).
(1 picture or pasted object on this page, not shown here)

HNDF cells [1] = assay: MTT growth/viability assay, HNDF; assay type: cell-based, human; details: 72 h
Protocol: MTT assays were performed in 96 well plates. After treatments, medium was replaced with 200 μL of MTT solution (3 mg mL^−1 MTT (Sigma #M2128) in PBS diluted 1:5 in growth medium). […] Volume of 200 μL DMSO per well were added and plates were read at 570 nm.

total RNA in ARN8 cells = assay: Total RNA quantification; assay type: cell-based, human
Protocol: (§1) Cells were fixed in 4 % paraformaldehyde made in PBS followed by 10 min at 37 °C, permeabilization in 0.15 % Triton X-100 for 1-2 min at 37 °C, and staining with antibodies against nucleolin and p53. Images were taken using Olympus IX-71 microscope controlled by Delta Vision SoftWorx. Image stacks were deconvolved, quick-projected and saved as tiff images to be processed using Adobe PhotoShop. Antibodies to specific antigens are listed in Supplementary Table 8. b) ARN8 […]
(§2) was extracted and quantified. […]

nucleoli in HCT116 cells = assay: Immunofluorescence of nucleolin and p53; assay type: cell-based; details: Supplementary Fig. 4a
Protocol: Protein extracts were prepared in 1× LDS sample buffer (Invitrogen) with 100 mM DTT and separated and transferred using the Invitrogen western blotting system except in Supplementary Fig. 1c where the BioRad western blotting system was used. HRP-conjugated secondary antibodies were obtained from Dako (#P016102 and #P0211702) or Santa Cruz (#SC-2020). Immunofluorescence was performed by fixing cells in 4% paraformaldehyde freshly made in PBS for 10 min at 37 °C. Following fixation, cells were permeabilized in 0.15% Triton X-100 for 1–2 min at 37 °C followed by staining with the indicated antibodies. Images were taken using Olympus IX-71 microscope controlled by DeltaVision SoftWoRx. Image stacks were deconvolved, quick-projected and saved as tiff images to be processed using Adobe Photoshop. Antibodies to specific antigens are listed in Supplementary Table 8. All original films for blots in Fig. 1 are shown in Supplementary Figs. 9–12.
as §1, with “PhotoShop.” for “PhotoShop. Antibodies to specific antigens are listed in Supplementary Table 8. b) ARN8”
as §2

[2] = In vivo pharmacokinetic parameters of (R)-HZ05; set-up: species or system C57B1/6N mice; details: female, C57B1/6N, mouse, plasma, sc, 50 mg kg-1; following subcutaneous administration (Supplementary Fig. 7b); read-out: half-life (converted)
Protocol: Waters Acquity UPLC (Waters Corp.) was used for all LC/MS and LC/MS/MS experiments. For chromatographic separation a general gradient was used (5 % mobile phase B to 90 % over 2 min total run) on a C18 BEH 1.7 µm column 2 × 50 mm (Waters Corp.). Mobile phase A consisted of 5 % acetonitrile 0.1 % formic acid and mobile phase B 100 % acetonitrile 0.1 % formic acid. The flow rate was 0.5 mL min-1 and 3 µL of the sample was injected. A standard curve between 3−1000 nM was prepared for each compound. […]
In vivo Pharmacokinetic Parameter Determination
(R)-HZ05 was formulated for subcutaneous and oral administration at 5 mg mL-1 in 20 % hydroxypropyl-β-cyclodextrin in PBS and formulated at 5 mg mL-1 diluted in physiological NaCl. […]
Blood was collected […]
in EDTA tubes from three mice per time point and stored on ice with plasma separated within 30 min by centrifugation at 2000 g and stored at –80 ° C until analysis at 0.08, 0.25, 0.5, 1, 2, 3, 4, 6 and 24 h post administration. […] internal standard (9 nM warfarin) was added to each plasma sample and each sample was shaken at RT for 10 min followed by centrifugation at 2000 g for 30 min at 4 °C. […] of sample was injected into an Acquity UPLC coupled to a triple quadrupole mass spectrometer (Waters) operated in MRM mode with positive electrospray ionization. MRM transition 381.09 > […]
CV and 40 V for CE) as a qualifier ion. Transition for internal standard was 309.16 > 163.005 (22 V for CV and 14 V for CE). Ion source conditions were: capillary voltage, 2000 V; desolvation temperature, 500 °C; desol vation gas flow rate, 1000 L h-1. Separation was conducted using a BEH C18 column (2.1 × 50 mm, 1.7 µm, Waters) using a linear gradient: 0 – 0.5 min, 5 % B; […], 100 % B, 1.61–2.00 min, 5 % B. Mobile phase A was 5 % acetonitrile with 0.1 % formic acid and B […]
All animal experimentation was carried out by Sweden
Contract In vivo Design AB in compliance with 2010/63/EU directive and approved by Stockholms Norra Djurförsöksetiska Nämnd (laboratory animal eth ical committee Stockholm) with the approval number N61/15. Any single plasma concentration value deviated by >10 times from the other two values was excluded from the pharmacokinetic evaluation, but was included in the figure. […]

HNDF cells [3] = assay: PI flow cytometry, sub-G1 cells, HNDF; assay type: cell-based, human
Protocol: Cell cycle distribution analysis was performed on a Becton Dickinson FACScan flow cytometer or FACSCalibur (BD Biosciences) following staining with propidium iodide (PI) or dual labeling with BrdU and PI[36]. These assays were analyzed using CellQuest Pro (BD Biosciences).

ARN8 xenograft = assay: ARN8 subcutaneous xenograft; assay type: in vivo; details: ARN8 xenograft
Protocol: All animal xenograft experiments were approved by the Norwegian Animal Research Authority and conducted according to The European Convention for the Protection of Vertebrates Used for Scientific Purposes. […] The health status and weight of the mice were monitored daily and they were randomized in a non-blinded manner into 4 groups when tumor volumes reached 30–40 mm^3. […] Tumor volumes were measured every second day by a digital caliper using the following ellipsoid formula: Volume = π (length × width × height)/6.
To determine the efficacy of (R)-HZ05 in combination with nutlin-3a, 4 groups of NSG mice (n = 8 per group) were subcutaneously injected in the flank region with a single 100 μL injection of 2 × 10^6 ARN8 cells in a solution of PBS:Matrigel (volume ratio 3:1). Treatment was initiated when tumors reached ~50 mm^3. The maximum tolerated dose for this combination of drugs was previously determined for the strain we used. The endpoint of the experiment was determined by the tumor size ([…]) weight loss, and general condition of the mice according to The Norwegian Animal Research Authority.

inhibition of lipid kinases (lipid kinases)	half-life [2] [h]	Compound	inhibitory effect on proliferation, HNDF versus ARN8 (HNDF cells [1])	total RNA levels (total RNA in ARN8 cells)	effect on nucleoli (nucleoli in HCT116 cells)	sub-G1 cells (HNDF cells [3]; HZ05 1 μM 72 h + 48 h, 2 μM nutlin-3a last 48 h) [%]	sub-G1 cells (HNDF cells [3]; HZ05 1 μM 72 h + 48 h, DMSO last 48 h) [%]	sub-G1 cells (HNDF cells [3]; HZ05 1 μM, 72 h treatment) [%]	sub-G1 cells (HNDF cells [3]; HZ05 2.5 μM, 72 h treatment) [%]	xenograft tumor growth, combination with nutlin-3a (ARN8 xenograft; (R)-HZ05 75 mg/kg q.d. s.c. + nutlin-3a 50 mg/kg b.i.d. orally, 10 days)	xenograft tumor growth, single agent (ARN8 xenograft; (R)-HZ05 75 mg/kg q.d. s.c. or nutlin-3a 50 mg/kg b.i.d. orally)
did not detect inhibition	–	O=C(NC1CCCc2c1cnn2-c1ccccc1F)c1ccccn1 (centres unmarked) [HZ00]	lesser inhibitory effect on proliferation of HNDFs than on the growth of ARN8 cells	drop in total RNA levels	nucleoli were disrupted	–	–	–	–	–	–
–	2.5	O=C(NC1CCCc2c1cnn2-c1ccccc1F)c1onc2c1CCCC2 (centres unmarked) [HZ05]	–	–	–	1.9	2.2	1.9	2.9	statistically significant reduction in xenograft growth	ineffective
